Test results from patent publication US12077503B2, “Substituted cyclic amides and their use as herbicides” (FMC CORPORATION, priority 2015, dated 2024).

Legend:
Format in all cases: in vivo
Kochia (Kochia scoparia) [1] = experiment: Test A preemergence; conditions: Bassia scoparia, pre-emergence, 240 h; for pest or weed control at 125 g/ha: 125 g ai/ha, Preemergence, visual injury rating after approximately 10 d, read-out: Kochia plant response rating (0 to 100 scale, 0 is no effect, 100 is complete control); for pest or weed control at 500 g/ha: 500 g ai/ha, preemergence, visual injury rating about 10 d after treatment, 0 to 100 scale (0 no effect, 100 complete control), read-out: Kochia plant response rating
Method in brief: (§1)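 Preemergence soil spray on seeded pots or post-emergence spray on 1–2 leaf plants, in loam–sand blend. Greenhouse ~10 d. Visual rating 0–100 against untreated plants.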

[2] = test system: barnyardgrass (Echinochloa crus-galli); experiment: Test A preemergence; conditions: Echinochloa crus-galli, pre-emergence, 240 h; for pest or weed control at 125 g/ha: 125 g ai/ha, Preemergence, visual injury rating after approximately 10 d, read-out: Barnyardgrass plant response rating (0 to 100 scale, 0 is no effect, 100 is complete control); for pest or weed control at 500 g/ha: 500 g ai/ha, preemergence, visual injury rating about 10 d after treatment, 0 to 100 scale (0 no effect, 100 complete control), read-out: Barnyardgrass plant response rating
Method in brief: as §1

[3] = test system: giant foxtail (Setaria faberii); experiment: Test A preemergence; conditions: Setaria faberi, pre-emergence, 240 h; for pest or weed control at 125 g/ha: 125 g ai/ha, Preemergence, visual injury rating after approximately 10 d, read-out: Foxtail, Giant plant response rating (0 to 100 scale, 0 is no effect, 100 is complete control); for pest or weed control at 500 g/ha: 500 g ai/ha, preemergence, visual injury rating about 10 d after treatment, 0 to 100 scale (0 no effect, 100 complete control), read-out: Foxtail, Giant plant response rating
Method in brief: as §1

[4] = test system: pigweed (Amaranthus retroflexus); experiment: Test A preemergence; conditions: Amaranthus retroflexus, pre-emergence, 240 h; for pest or weed control at 125 g/ha: 125 g ai/ha, Preemergence, visual injury rating after approximately 10 d, read-out: Pigweed plant response rating (0 to 100 scale, 0 is no effect, 100 is complete control); for pest or weed control at 500 g/ha: 500 g ai/ha, preemergence, visual injury rating about 10 d after treatment, 0 to 100 scale (0 no effect, 100 complete control), read-out: Pigweed plant response rating
[5] = test system: ragweed (common ragweed, Ambrosia elatior); experiment: Test A preemergence; conditions: Ambrosia artemisiifolia, pre-emergence, 240 h; for pest or weed control at 125 g/ha: 125 g ai/ha, Preemergence, visual injury rating after approximately 10 d, read-out: Ragweed plant response rating (0 to 100 scale, 0 is no effect, 100 is complete control); for pest or weed control at 500 g/ha: 500 g ai/ha, preemergence, visual injury rating about 10 d after treatment, 0 to 100 scale (0 no effect, 100 complete control), read-out: Ragweed plant response rating
Method in brief: as §1

[6] = test system: ryegrass, Italian (Italian ryegrass, Lolium multiflorum); experiment: Test A preemergence; conditions: Lolium multiflorum, pre-emergence, 240 h; for pest or weed control at 125 g/ha: 125 g ai/ha, Preemergence, visual injury rating after approximately 10 d, read-out: Ryegrass, Italian plant response rating (0 to 100 scale, 0 is no effect, 100 is complete control); for pest or weed control at 500 g/ha: 500 g ai/ha, preemergence, visual injury rating about 10 d after treatment, 0 to 100 scale (0 no effect, 100 complete control), read-out: Ryegrass, Italian plant response rating
Method in brief: as §1

[7] = test system: Galium (catchweed bedstraw, Galium aparine); experiment: Test A postemergence; conditions: Galium, post-emergence, 240 h, postemergence, approx. 10 d; for pest or weed control at 125 g/ha: 125 g ai/ha, visual injury on 0 to 100 scale (0 no effect, 100 complete control), read-out: Galium plant response rating; for pest or weed control at 500 g/ha: 500 g ai/ha, visual injury, 0 to 100 scale (0 no effect, 100 complete control), read-out: Plant response rating, Galium
Method in brief: as §1

Kochia (Kochia scoparia) [8] = experiment: Test A postemergence; conditions: Bassia scoparia, post-emergence, 240 h, postemergence, approx. 10 d; for pest or weed control at 125 g/ha: 125 g ai/ha, visual injury on 0 to 100 scale (0 no effect, 100 complete control), read-out: Kochia plant response rating; for pest or weed control at 500 g/ha: 500 g ai/ha, visual injury, 0 to 100 scale (0 no effect, 100 complete control), read-out: Plant response rating, Kochia
Method in brief: as §1

[9] = test system: barnyardgrass (Echinochloa crus-galli); experiment: Test A postemergence; conditions: Echinochloa crus-galli, post-emergence, 240 h, read-out: Plant response rating, Barnyardgrass; for pest or weed control at 125 g/ha: 125 g ai/ha, Postemergence, visual injury after approximately 10 d, 0 to 100 scale where 0 is no effect and 100 is complete control; for pest or weed control at 500 g/ha: 500 g ai/ha, postemergence, visual injury, 0 to 100 scale (0 no effect, 100 complete control), approx. 10 d
Method in brief: as §1

[10] = test system: blackgrass (Alopecurus myosuroides); experiment: Test A postemergence; conditions: Alopecurus myosuroides, post-emergence, 240 h, read-out: Plant response rating, Blackgrass; for pest or weed control at 125 g/ha: 125 g ai/ha, Postemergence, visual injury after approximately 10 d, 0 to 100 scale where 0 is no effect and 100 is complete control; for pest or weed control at 500 g/ha: 500 g ai/ha, postemergence, visual injury, 0 to 100 scale (0 no effect, 100 complete control), approx. 10 d
Method in brief: as §1

corn (Zea mays) = experiment: Test A postemergence; conditions: Zea mays, post-emergence, 240 h; for Corn plant response rating (crop injury, 0 = no effect, 100 = complete kill) at 125 g/ha: 125 g ai/ha, Postemergence, visual injury after approximately 10 d, 0 to 100 scale where 0 is no effect and 100 is complete control; for Corn plant response rating (crop injury, 0 = no effect, 100 = complete kill) at 500 g/ha: 500 g ai/ha, postemergence, visual injury, 0 to 100 scale (0 no effect, 100 complete control), approx. 10 d
Method in brief: as §1

[11] = test system: pigweed (Amaranthus retroflexus); experiment: Test A postemergence; conditions: Amaranthus retroflexus, post-emergence, 240 h, postemergence, approx. 10 d; for pest or weed control at 125 g/ha: 125 g ai/ha, visual injury on 0 to 100 scale (0 no effect, 100 complete control), read-out: Pigweed plant response rating; for pest or weed control at 500 g/ha: 500 g ai/ha, visual injury, 0 to 100 scale (0 no effect, 100 complete control), read-out: Plant response rating, Pigweed
Method in brief: as §1

[12] = test system: ragweed (common ragweed, Ambrosia elatior); experiment: Test A postemergence; conditions: Ambrosia artemisiifolia, post-emergence, 240 h, postemergence, approx. 10 d; for pest or weed control at 125 g/ha: 125 g ai/ha, visual injury on 0 to 100 scale (0 no effect, 100 complete control), read-out: Ragweed plant response rating; for pest or weed control at 500 g/ha: 500 g ai/ha, visual injury, 0 to 100 scale (0 no effect, 100 complete control), read-out: Plant response rating, Ragweed
Method in brief: as §1

[13] = test system: ryegrass, Italian (Italian ryegrass, Lolium multiflorum); experiment: Test A postemergence; conditions: Lolium multiflorum, post-emergence, 240 h, postemergence, approx. 10 d; for pest or weed control at 125 g/ha: 125 g ai/ha, visual injury on 0 to 100 scale (0 no effect, 100 complete control), read-out: Ryegrass, Italian plant response rating; for pest or weed control at 500 g/ha: 500 g ai/ha, visual injury, 0 to 100 scale (0 no effect, 100 complete control), read-out: Plant response rating, Ryegrass, Italian
Method in brief: as §1

[14] = test system: wheat (Triticum aestivum); experiment: Test A postemergence; conditions: Triticum aestivum, post-emergence, 240 h, postemergence, approx. 10 d; for plant injury at 125 g/ha: 125 g ai/ha, visual injury on 0 to 100 scale (0 no effect, 100 complete control), read-out: Wheat plant response rating; for plant injury at 500 g/ha: 500 g ai/ha, visual injury, 0 to 100 scale (0 no effect, 100 complete control), read-out: Plant response rating, Wheat
Method in brief: as §1

Row | Structure (SMILES) | pest or weed control at 125 g/ha (Kochia (Kochia scoparia) [1]) | pest or weed control at 500 g/ha (Kochia (Kochia scoparia) [1]) | pest or weed control at 125 g/ha [2] | pest or weed control at 500 g/ha [2] | pest or weed control at 125 g/ha [3] | pest or weed control at 500 g/ha [3] | pest or weed control at 125 g/ha [4] | pest or weed control at 500 g/ha [4] | pest or weed control at 125 g/ha [5] | pest or weed control at 500 g/ha [5] | pest or weed control at 125 g/ha [6] | pest or weed control at 500 g/ha [6] | pest or weed control at 125 g/ha [7] | pest or weed control at 500 g/ha [7] | pest or weed control at 125 g/ha (Kochia (Kochia scoparia) [8]) | pest or weed control at 500 g/ha (Kochia (Kochia scoparia) [8]) | pest or weed control at 125 g/ha [9] | pest or weed control at 500 g/ha [9] | pest or weed control at 125 g/ha [10] | pest or weed control at 500 g/ha [10] | other results
1 | CN1CC[C@H](c2ccccc2)[C@@H](C(=O)Nc2ccccc2F)C1=O [Compound 1032] | 0% | 0% | 20% | 70% | 0% | 70% | 0% | 0% | 0% | 0% | 0% | 0% | 0% | 0% | 0% | 0% | 0% | 0% | 0% | 0% | Corn plant response rating (crop injury, 0 = no effect, 100 = complete kill) at 125 g/ha (corn (Zea mays)): 0%; Corn plant response rating (crop injury, 0 = no effect, 100 = complete kill) at 500 g/ha (corn (Zea mays)): 0%; pest or weed control at 125 g/ha [11]: 0%; pest or weed control at 500 g/ha [11]: 0%; pest or weed control at 125 g/ha [12]: 0%; pest or weed control at 500 g/ha [12]: 0%; pest or weed control at 125 g/ha [13]: 0%; pest or weed control at 500 g/ha [13]: 0%; plant injury at 125 g/ha [14]: 0%; plant injury at 500 g/ha [14]: 0%
2 | Cc1ccc([C@H]2CNC(=O)[C@@H]2C(=O)Nc2cccc(F)c2F)cc1C [Compound 1034] | 60% | 70% | 90% | 90% | 80% | 90% | 0% | 0% | 30% | 90% | 20% | 60% | 40% | 60% | 20% | 30% | 90% | 90% | 20% | 30% | Corn plant response rating (crop injury, 0 = no effect, 100 = complete kill) at 125 g/ha (corn (Zea mays)): 10%; Corn plant response rating (crop injury, 0 = no effect, 100 = complete kill) at 500 g/ha (corn (Zea mays)): 50%; pest or weed control at 125 g/ha [11]: 0%; pest or weed control at 500 g/ha [11]: 0%; pest or weed control at 125 g/ha [12]: 10%; pest or weed control at 500 g/ha [12]: 40%; pest or weed control at 125 g/ha [13]: 0%; pest or weed control at 500 g/ha [13]: 60%; plant injury at 125 g/ha [14]: 0%; plant injury at 500 g/ha [14]: 50%
3 | Cc1ccc([C@H]2CN(C)C(=O)[C@@H]2C(=O)Nc2ccccc2F)cc1C [Compound 1038] | 80% | 80% | 100% | 100% | 100% | 100% | 20% | 30% | 20% | 70% | 30% | 70% | 50% | 70% | 40% | 80% | 90% | 90% | 30% | 50% | Corn plant response rating (crop injury, 0 = no effect, 100 = complete kill) at 125 g/ha (corn (Zea mays)): 60%; Corn plant response rating (crop injury, 0 = no effect, 100 = complete kill) at 500 g/ha (corn (Zea mays)): 80%; pest or weed control at 125 g/ha [11]: 0%; pest or weed control at 125 g/ha [12]: 0%; pest or weed control at 125 g/ha [13]: 20%; plant injury at 125 g/ha [14]: 20%
